Laboratory results as given in patent US4057684A, “Alkyl amino-glucopyranoside derivative and process for producing the same” (priority 1975, dated 1977).
Values joined by “and” are separate entries in the source; they are usually repeats but may differ in a detail not shown here. Identical values can stand only once. “Also recorded” adds a separate entry of the source. Like-named read-outs stand apart in the source and are kept apart here.

Assays:
[1] = in vivo; cited from earlier work
tumor = settings: in vivo; cited from earlier work
[2] = cited from earlier work
[3] = test animals; cited from earlier work
[4] = test system: Nakahara-Fukuoka sarcoma (NFS); test: antitumor effect against Nakahara-Fukuoka sarcoma (NFS) implanted in mice; type: in vivo, mouse (ICR)
From the text: (§1) Results of pharmacological studies for amino-glucopyranoside [I] according to the invention are described below. The test compounds which were used included methyl N-carbamyl-N'-(2-chloroethyl)-N'-nitroso-2-amino-2-deoxy-α-D-glucopyranoside and methyl N-carbamyl-N'-(2-chloroethyl)-N'-nitroso-6-amino-6-deoxy-α-D-glucopyranoside (hereinafter abbreviated to 2MCαG and 6MCαG, respectively). The control compounds which were employed were 1-(2-chloroethyl)-3-cyclohexyl-1-nitrosoourea (hereinafter abbreviated to CCNU), which had been widely applied as a control compound in such a pharmacological test of the streptozotocin derivatives, and GCNU referred to previously. The tumor systems which were used were leukemia L-1210, Nakahara-Fukuoka sarcoma, adenocarcinoma-755, ascites sarcoma 180 and Ehrlich ascites carcinoma (hereinafter abbreviated to L-1210, NFS, Ca-755, S-180A and EAC, respectively), and the antitumor activities were determined by a procedure of the National Cancer Center, Tokyo (A. Hoshi et al.: Farumashia 9, 464(1973)). The test animals which were used were ICR and BDF1 mice.
(§2) ^a Treatment was initiated 24 hr after implantation of tumor (day 1):
(§3) D1~5 = qd, day 1~5; D1 = day 1 only.
(§4) ^b T/C is expressed as the tumor weight ratio in solid tumors or tota
(§5) packed cell volume ratio in ascites tumors of treated/control.

bacteria = test: antibacterial activity, broth dilution method
[5] = peripheral white blood cell counts (bone marrow toxicity) and survival in normal male ICR mice; type: in vivo, mouse (ICR)
Method: Such peripheral white blood cell counts were performed as follows: Normal male ICR mice were used in groups of tens and the test compounds for treatment were made into their respective solutions. 2MCαG and 6MCαG were dissolved in physiological saline solutions, while CCNU and GCNU were suspended in 0.5% CMC aqueous solution and 50% PEG aqueous solution, respectively. A single administration at volume of 1 ml per 100 g body weight of animal (0.1 ml/10 g) was given intraperitoneally, and the peripheral white blood cell counts were performed 3, 8 and 15 days after administration of the test compounds.

[6] = test system: adenocarcinoma-755 (Ca-755); test: antitumor effect against adenocarcinoma-755 (Ca-755) implanted in mice; type: in vivo, mouse (BDF1)
From the text: as §1, §2, §3, §4, §5

[7] = acute toxicity (LD50) in mice; type: in vivo, mouse (ICR); settings: mouse, in vivo, ICR mice
[8] = test system: solid as well as ascites tumor systems; test: antitumor activity in the tumor systems (overall); type: in vivo, mouse; settings: mouse, in vivo
From the text: as §1

[9] = test system: ascites sarcoma 180 (S-180A); test: antitumor effect against ascites sarcoma 180 (S-180A) implanted in mice; type: in vivo, mouse (ICR)
From the text: as §1, §2, §3, §4, §5

[10] = test system: Ehrlich ascites carcinoma (EAC); test: antitumor effect against Ehrlich ascites carcinoma (EAC) implanted in mice; type: in vivo, mouse (ICR)
From the text: as §1, §2, §3, §4, §5

leukemia L-1210 = test: increase in life span and survival of leukemia L-1210 implanted mice; type: in vivo, mouse (BDF1)
From the text: as §1, §2, §3
^d % increase in life span (mean survival time) over controls.
^e 60 days survivors/total in treated group.

[11] = blood sugar level / diabetogenic activity; type: in vivo, rat (male Wister)
[12] = 3.2 mg/kg/day ip D1~5, ICR mice
[13] = 6.3 mg/kg/day ip D1~5, ICR mice
[14] = 12.5 mg/kg/day ip D1~5, ICR mice
[15] = 15.0 mg/kg/day ip D1~5, ICR mice
[16] = 20.0 mg/kg/day ip D1~5, ICR mice
[17] = 3.2 mg/kg/day ip D1~5, BDF1 mice
[18] = 6.3 mg/kg/day ip D1~5, BDF1 mice
[19] = 15.0 mg/kg/day ip D1~5, BDF1 mice
[20] = 3.2 mg/kg/day ip, 5 successive days
[21] = 3.2 mg/kg/day ip D1~5, listed as 2MCaαG

For `O=NN(CCCl)C(=O)N[C@H]1C(O)O[C@H](CO)[C@@H](O)[C@@H]1O` (stereo partly drawn) [2-[3-(2-chloroethyl)-3-nitrosoureido]-2-deoxy-D-glucopyranose], the bone marrow toxicity [1] is listed as “low bone marrow toxicity”, the antitumor activity (tumor) is listed as “improved antitumor activity” and the water solubility [2] is listed as “water-soluble”. For the same compound, the diabetogenic activity [3] was “diabetogenic”.

With `CO[C@H]1O[C@H](CO)[C@@H](O)[C@H](O)[C@H]1NC(=O)N(CCCl)N=O` [Example 2MCαG, methyl N-carbamyl-N'-(2-chloroethyl)-N'-nitroso-2-amino-2-deoxy-α-D-glucopyranoside] the Activity [4, 12] was “- (100~71% = -)”, the T/C [4, 12] was 86.1% and the Activity [4, 13] was “+ (70~51% = +)”. For the same compound, the T/C [4, 13] was 55.2%, the T/C [4, 14] was 44.3% and the Activity [4, 15] was “++ (50~21% = ++)”. The T/C [4, 15] was 29.2%, the Activity [4, 16] was “Toxic” and the died/used [4, 16] was 6/6. For the same compound, the “antitumor effect compared with CCNU” value ([4]; ip, 5 successive days) was “more effective than CCNU”, the antibacterial activity (bacteria) was “without any antibacterial activities; also recorded: free from diabetogenic and antibacterial activities” and the “Death rate (death/used)” value ([5]; 10 mg/kg ip single) was 0/10. For the same compound, the “Average count of WBC” value ([5]; 10 mg/kg ip single, day 3) was 74.0±4.6 x 10^2 WBC/mm^3, the “Average count of WBC” value ([5]; 10 mg/kg ip single, day 8) was 105.6±4.5 x 10^2 WBC/mm^3 and the “Average count of WBC” value ([5]; 10 mg/kg ip single, day 15) was 131.8±5.4 x 10^2 WBC/mm^3. The “Death rate (death/used)” value ([5]; 20 mg/kg ip single) was 2/10, the “Average count of WBC” value ([5]; 20 mg/kg ip single, day 3) was 46.3±9.5 x 10^2 WBC/mm^3 and the “Average count of WBC” value ([5]; 20 mg/kg ip single, day 8) was 101.0±16.5 x 10^2 WBC/mm^3. For the same compound, the “Average count of WBC” value ([5]; 20 mg/kg ip single, day 15) was 129.4±20.1 x 10^2 WBC/mm^3, the “Death rate (death/used)” value ([5]; 40 mg/kg ip single) was 10/10 and the “Average count of WBC” value ([5]; 40 mg/kg ip single, day 3) was 30.8±2.8 x 10^2 WBC/mm^3. The “Death rate (death/used)” value ([5]; 60 mg/kg ip single) was 10/10, the “Average count of WBC” value ([5]; 60 mg/kg ip single, day 3) was 35.4±2.9 x 10^2 WBC/mm^3 and the “Death rate (death/used)” value ([5]; 80 mg/kg ip single) was 10/10. The “Average count of WBC” value ([5]; 80 mg/kg ip single, day 3) was 32.0±3.8 x 10^2 WBC/mm^3, the incidence of leukopenia ([5]; LD10 doses) was “comparatively mild with rapid return to pretreatment levels” and the bone marrow toxicity ([5]; mouse, in vivo) was “improved bone marrow toxicity”. The “bone marrow toxicity compared with CCNU” value ([5]; mouse, in vivo) was “less toxic”, the “bone marrow toxicity compared with GCNU” value ([5]; mouse, in vivo) was “equivalent values as GCNU” and the Activity [6, 17] was “++ (50~21% = ++)”. The T/C [6, 17] was 22.4%, the Activity [6, 18] was “+++ (20~0% = +++)” and the T/C [6, 18] was 9.6%. The T/C ([6]; 12.5 mg/kg/day ip D1~5, BDF1 mice) was 3.3%, the Activity [6, 19] was “Toxic” and the T/C [6, 19] was 0.3%. The died/used [6, 19] was 6/6, the “antitumor effect compared with CCNU” value ([6]; ip, 5 successive days) was “more effective than CCNU” and the LD50 ([7]; 5 doses, qd) was 16 mg/kg. The LD50 ([7]; single dose) was 48 mg/kg, the antitumor activity [8] was “activity against solid as well as ascites tumor systems” and the Activity [9, 12] was “+++ (10~0% 10~0% = +++)”. The T/C [9, 12] was 0%, the “accumulation of ascites tumor cells” value [9, 20] was “no accumulation of ascites tumor cells was observable” and the T/C [9, 14] was 0%. The Activity [10, 12] was “+++ (10~0% 10~0% = +++)”, the T/C [10, 12] was 0% and the “accumulation of ascites tumor cells” value [10, 20] was “no accumulation of ascites tumor cells was observable”. The T/C [10, 14] was 0%, the ILS (leukemia L-1210; 1.0 mg/kg/day ip D1~5) was 48% and the “Survivors (60 days survivors/total)” value (leukemia L-1210; 1.0 mg/kg/day ip D1~5) was 0/6. For the same compound, the ILS (leukemia L-1210; 2.0 mg/kg/day ip D1~5) was > 249%, the “Survivors (60 days survivors/total)” value (leukemia L-1210; 2.0 mg/kg/day ip D1~5) was 1/6 and the ILS (leukemia L-1210; 2.0 mg/kg/day po D1~5) was > 143%. For the same compound, the “Survivors (60 days survivors/total)” value (leukemia L-1210; 2.0 mg/kg/day po D1~5) was 1/6, the ILS (leukemia L-1210; 3.2 mg/kg/day ip D1~5) was 394% and the “Survivors (60 days survivors/total)” value (leukemia L-1210; 3.2 mg/kg/day ip D1~5) was 3 out of 6. The ILS (leukemia L-1210; [21]) was > 394%, the “Survivors (60 days survivors/total)” value (leukemia L-1210; [21]) was 3/6 and the ILS (leukemia L-1210; 3.2 mg/kg/day po D1~5) was > 141%. For the same compound, the “Survivors (60 days survivors/total)” value (leukemia L-1210; 3.2 mg/kg/day po D1~5) was 1/6, the ILS (leukemia L-1210; 4.0 mg/kg/day ip D1~5) was > 349% and the “Survivors (60 days survivors/total)” value (leukemia L-1210; 4.0 mg/kg/day ip D1~5) was 2/6. The ILS (leukemia L-1210; 6.3 mg/kg ip D1 only) was 128%, the “Survivors (60 days survivors/total)” value (leukemia L-1210; 6.3 mg/kg ip D1 only) was 0/6 and the ILS (leukemia L-1210; 6.3 mg/kg/day ip D1~5) was > 198%. The “Survivors (60 days survivors/total)” value (leukemia L-1210; 6.3 mg/kg/day ip D1~5) was 1/6, the ILS (leukemia L-1210; 6.3 mg/kg/day po D1~5) was 343% and > 343% and the “Survivors (60 days survivors/total)” value (leukemia L-1210; 6.3 mg/kg/day po D1~5) was 2 out of 6 and 2/6. The ILS (leukemia L-1210; 8.0 mg/kg ip D1 only) was > 432%, the “Survivors (60 days survivors/total)” value (leukemia L-1210; 8.0 mg/kg ip D1 only) was 3/6 and the ILS (leukemia L-1210; 10.0 mg/kg ip D1 only) was > 717%. For the same compound, the “Survivors (60 days survivors/total)” value (leukemia L-1210; 10.0 mg/kg ip D1 only) was 6/6, the ILS (leukemia L-1210; 10.0 mg/kg/day ip D1~5) was > 190% and the “Survivors (60 days survivors/total)” value (leukemia L-1210; 10.0 mg/kg/day ip D1~5) was 1/6. For the same compound, the ILS (leukemia L-1210; 12.5 mg/kg/day ip D1~5) was > 160%, the “Survivors (60 days survivors/total)” value (leukemia L-1210; 12.5 mg/kg/day ip D1~5) was 1/6 and the ILS (leukemia L-1210; 12.5 mg/kg/day po D1~5) was 211%. For the same compound, the “Survivors (60 days survivors/total)” value (leukemia L-1210; 12.5 mg/kg/day po D1~5) was 0/6, the ILS (leukemia L-1210; 20.0 mg/kg ip D1 only) was > 717% and the “Survivors (60 days survivors/total)” value (leukemia L-1210; 20.0 mg/kg ip D1 only) was 6/6. The ILS (leukemia L-1210; 20.0 mg/kg/day ip D1~5) was 58%, the “Survivors (60 days survivors/total)” value (leukemia L-1210; 20.0 mg/kg/day ip D1~5) was 0/6 and the ILS (leukemia L-1210; 25.0 mg/kg ip D1 only) was > 539%. For the same compound, the “Survivors (60 days survivors/total)” value (leukemia L-1210; 25.0 mg/kg ip D1 only) was > 4/6, the “single dose compared with five dose schedule” value (leukemia L-1210; ip) was “might be more effective than a five dose schedule” and the “activity against L-1210 compared with CCNU and GCNU” value (leukemia L-1210; mouse, in vivo) was “more active against L-1210”. The ILS (leukemia L-1210; single 10-20 mg/kg ip) was 717%, the animals survived (leukemia L-1210; single 10-20 mg/kg ip) was “all 6 animals survived” and the blood sugar level ([11]; one-month administration, qd, day 1-30, male Wister rat, glucose oxidase method) was “neither elevation nor depression tendencies”. The diabetogenic activity ([11]; rat, in vivo) was “free from diabetogenic”.
